Key:
[1] = biological target: PIK3CA (human) (UniProt P42336); assay: Inhibition of PIK3CA Kinase Activity
[2] = biological target: PIK3CD (Human) (UniProt O00329); assay: Inhibition of PIK3CD Kinase Activity
Chain of PIK3CD (Human) (O00329 whole entry, looked up): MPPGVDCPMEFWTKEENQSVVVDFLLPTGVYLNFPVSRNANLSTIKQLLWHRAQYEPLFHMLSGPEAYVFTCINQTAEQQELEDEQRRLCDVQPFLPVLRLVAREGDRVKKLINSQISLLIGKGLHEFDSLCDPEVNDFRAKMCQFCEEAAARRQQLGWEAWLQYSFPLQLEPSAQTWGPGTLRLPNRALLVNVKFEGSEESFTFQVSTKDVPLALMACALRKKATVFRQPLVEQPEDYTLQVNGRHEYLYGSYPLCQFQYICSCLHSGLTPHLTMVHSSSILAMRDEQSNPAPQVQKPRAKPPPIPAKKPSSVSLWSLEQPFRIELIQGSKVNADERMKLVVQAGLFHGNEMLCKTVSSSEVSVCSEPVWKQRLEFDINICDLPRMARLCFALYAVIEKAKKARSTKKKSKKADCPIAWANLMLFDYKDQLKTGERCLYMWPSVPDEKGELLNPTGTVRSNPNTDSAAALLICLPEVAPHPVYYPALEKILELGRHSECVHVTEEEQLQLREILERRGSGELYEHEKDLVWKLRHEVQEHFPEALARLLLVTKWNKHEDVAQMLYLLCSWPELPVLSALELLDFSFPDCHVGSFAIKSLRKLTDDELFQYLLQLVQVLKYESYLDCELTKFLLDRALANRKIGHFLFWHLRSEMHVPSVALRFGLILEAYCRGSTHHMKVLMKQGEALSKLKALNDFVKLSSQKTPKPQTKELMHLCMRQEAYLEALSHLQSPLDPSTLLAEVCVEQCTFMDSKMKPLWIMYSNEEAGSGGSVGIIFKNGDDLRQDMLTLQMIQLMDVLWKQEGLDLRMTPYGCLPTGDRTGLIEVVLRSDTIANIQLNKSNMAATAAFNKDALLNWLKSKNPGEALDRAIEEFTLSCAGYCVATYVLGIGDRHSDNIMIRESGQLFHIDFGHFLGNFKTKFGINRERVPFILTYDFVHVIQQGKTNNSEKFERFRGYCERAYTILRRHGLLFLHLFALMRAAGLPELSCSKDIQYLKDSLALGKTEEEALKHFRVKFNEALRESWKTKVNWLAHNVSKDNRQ

Chain of PIK3CA (human) (P42336 whole entry, looked up): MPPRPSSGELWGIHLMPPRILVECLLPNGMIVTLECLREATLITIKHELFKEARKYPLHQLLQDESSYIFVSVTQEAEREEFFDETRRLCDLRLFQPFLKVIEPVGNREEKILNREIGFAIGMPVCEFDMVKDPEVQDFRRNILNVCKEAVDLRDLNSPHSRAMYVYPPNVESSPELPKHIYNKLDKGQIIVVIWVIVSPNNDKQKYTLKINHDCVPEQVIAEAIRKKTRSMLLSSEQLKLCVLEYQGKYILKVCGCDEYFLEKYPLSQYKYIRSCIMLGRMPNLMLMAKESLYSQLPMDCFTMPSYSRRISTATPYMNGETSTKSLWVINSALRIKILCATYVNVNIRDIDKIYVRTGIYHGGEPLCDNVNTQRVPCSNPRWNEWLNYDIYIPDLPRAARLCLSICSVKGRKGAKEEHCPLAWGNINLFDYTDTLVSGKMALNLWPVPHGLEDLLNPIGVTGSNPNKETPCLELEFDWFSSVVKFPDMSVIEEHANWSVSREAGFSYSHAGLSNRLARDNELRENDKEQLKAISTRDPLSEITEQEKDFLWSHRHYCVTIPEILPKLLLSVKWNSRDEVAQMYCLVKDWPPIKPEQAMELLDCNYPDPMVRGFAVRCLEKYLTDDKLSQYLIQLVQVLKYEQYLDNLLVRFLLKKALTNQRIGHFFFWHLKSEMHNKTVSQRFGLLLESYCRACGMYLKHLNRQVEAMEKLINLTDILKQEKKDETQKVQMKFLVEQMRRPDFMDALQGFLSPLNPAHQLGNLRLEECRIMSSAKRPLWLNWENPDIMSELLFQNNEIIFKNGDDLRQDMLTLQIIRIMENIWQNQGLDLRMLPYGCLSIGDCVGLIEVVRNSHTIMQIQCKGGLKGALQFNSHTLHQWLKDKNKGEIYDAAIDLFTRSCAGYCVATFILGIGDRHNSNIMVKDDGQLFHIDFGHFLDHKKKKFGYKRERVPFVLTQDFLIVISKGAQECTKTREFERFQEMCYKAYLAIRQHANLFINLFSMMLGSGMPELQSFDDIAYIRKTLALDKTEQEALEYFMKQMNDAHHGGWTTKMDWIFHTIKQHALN

Row | Structure (SMILES) | IC50 [1] [µM] | IC50 [2] [µM]
1 | CC(=NNS(=O)(=O)c1cc([N+](=O)[O-])ccc1N(C)CCn1ccnc1)c1cnn2ccc(Br)cc12 | 0.092 | 
2 | CC(=NNS(=O)(=O)c1cc([N+](=O)[O-])ccc1N(C)CCc1ccccn1)c1cnn2ccc(C#N)cc12 | 0.023 | 
3 | CNCCN(C)c1ccc([N+](=O)[O-])cc1S(=O)(=O)NN=C(C)c1cnn2ccc(C#N)cc12 | 0.082 | 0.39
4 | CCN(CC)CCN(C)c1ccc([N+](=O)[O-])cc1S(=O)(=O)N(C)N=C(C)c1cnn2ccc(C#N)cc12 | 0.46 | 
5 | CC(=NNS(=O)(=O)c1cc([N+](=O)[O-])ccc1N(C)CCc1ccncc1)c1cnn2ccc(C#N)cc12 | 0.049 | 0.42
6 | CC(=NNS(=O)(=O)c1cc([N+](=O)[O-])ccc1C)c1cnn2ccc(Br)cc12.CCCCCC | 0.03 | 0.22
7 | CC(=NNS(=O)(=O)c1cc([N+](=O)[O-])ccc1N(C)CCN(C)C)c1cnn2ccc(C#N)cc12.CCCCCC | 0.051 | 0.68
8 | CC(=NNS(=O)(=O)c1cc([N+](=O)[O-])ccc1C)c1cnn2ccc(C#N)cc12 | 0.0073 | 
9 | CC(=NNS(=O)(=O)c1cc([N+](=O)[O-])ccc1N(C)Cc1cccnc1)c1cnn2ccc(Br)cc12 | 0.053 | 
10 | CC(=NNS(=O)(=O)c1cc([N+](=O)[O-])ccc1N(C)CCN1CCN(S(C)(=O)=O)CC1)c1cnn2ccc(Br)cc12.CCCCCC | 0.042 | 
11 | CC(=NNS(=O)(=O)c1cc([N+](=O)[O-])ccc1N(C)CCc1ccccn1)c1cnn2ccc(Br)cc12 | 0.09 | 
12 | CCC(=NNS(=O)(=O)c1cc([N+](=O)[O-])ccc1C)c1cnn2ccc(C#N)cc12 | 0.0098 | 
13 | CC(=NNS(=O)(=O)c1cc([N+](=O)[O-])ccc1N(C)CCCN1CCOCC1)c1cnn2ccc(Br)cc12 | 0.45 | 
14 | CC(=NNS(=O)(=O)c1cc([N+](=O)[O-])ccc1F)c1cnn2ccc(Br)cc12 | 0.32 | 0.5
15 | CC(=NNS(=O)(=O)c1cc([N+](=O)[O-])ccc1F)c1cnc2ccc(Br)cn12 | 0.3 | 
16 | CC(=NNS(=O)(=O)c1cc([N+](=O)[O-])ccc1N(C)CCn1ccnc1)c1cnn2ccc(C#N)cc12 | 0.02 | 0.86
17 | CC(=NNS(=O)(=O)c1cc([N+](=O)[O-])ccc1N(C)CCc1c[nH]cn1)c1cnn2ccc(C#N)cc12.CCCCCC | 0.033 | 0.17
18 | CC(=NNS(=O)(=O)c1cc([N+](=O)[O-])ccc1N(C)CCN1CCCCC1)c1cnn2ccc(C#N)cc12 | 0.055 | 
19 | CC(=NNS(=O)(=O)c1cc([N+](=O)[O-])ccc1N(C)Cc1ccccn1)c1cnn2ccc(C#N)cc12 | 0.0048 | 0.011

Row | Structure (SMILES) | IC50 [1] [µM] | IC50 [2] [µM]
20 | CC(=NNS(=O)(=O)c1cc([N+](=O)[O-])ccc1N(C)CCN)c1cnn2ccc(C#N)cc12.CCCCCC | 0.34 | 
21 | CC(=NN(C)S(=O)(=O)c1cc([N+](=O)[O-])ccc1N(C)Cc1ccccn1)c1cnn2ccc(C#N)cc12 | 0.0052 | 0.58
22 | CCCCCC.CCN(CC)CCN(C)c1ccc([N+](=O)[O-])cc1S(=O)(=O)NN=C(C)c1cnn2ccc(Br)cc12 | 0.23 | 
23 | CC(=NNS(=O)(=O)c1cc([N+](=O)[O-])ccc1N(C)CCc1ccncc1)c1cnn2ccc(Br)cc12 | 0.044 | 
24 | CC(=NNS(=O)(=O)c1cc([N+](=O)[O-])ccc1N(C)CCc1c[nH]cn1)c1cnn2ccc(Br)cc12 | 0.16 | 
25 | CNCCN(C)c1ccc([N+](=O)[O-])cc1S(=O)(=O)NN=C(C)c1cnn2ccc(Br)cc12 | 0.057 | 
26 | CC(=NNS(=O)(=O)c1cc([N+](=O)[O-])ccc1N(C)Cc1ccncc1)c1cnn2ccc(C#N)cc12 | 0.04 | 0.33
27 | CC(=NNS(=O)(=O)c1cc([N+](=O)[O-])ccc1N(C)CCN(C)C)c1cnc2ccc(Br)cn12 | 0.33 | 
28 | CC(=NNS(=O)(=O)c1cc([N+](=O)[O-])ccc1N(C)Cc1ccncc1)c1cnn2ccc(Br)cc12 | 0.2 | 
29 | CC(=NN(C)S(=O)(=O)c1cc([N+](=O)[O-])ccc1N(C)CCc1ccccn1)c1cnn2ccc(C#N)cc12 | 0.48 | 
30 | CC(=NNS(=O)(=O)c1cc([N+](=O)[O-])ccc1N(C)CCCN1CCOCC1)c1cnn2ccc(C#N)cc12 | 0.33 | 
31 | CC(=NN(C)S(=O)(=O)c1cc([N+](=O)[O-])ccc1N(C)CCN(C)C)c1cnn2ccc(C#N)cc12 | 0.33 | 0.66
32 | Cc1ccc([N+](=O)[O-])cc1S(=O)(=O)NN=C(c1cnn2ccc(C#N)cc12)C(C)C | 0.039 | 0.31
33 | CC(=NN(C)S(=O)(=O)c1cc([N+](=O)[O-])ccc1N(C)CCN1CCCCC1)c1cnn2ccc(C#N)cc12 | 0.24 | 
34 | CCN(CC)CCN(C)c1ccc([N+](=O)[O-])cc1S(=O)(=O)NN=C(C)c1cnn2ccc(C#N)cc12 | 0.14 | 
35 | CC(=NNS(=O)(=O)c1cc([N+](=O)[O-])ccc1N(C)Cc1ccccn1)c1cnn2ccc(Br)cc12 | 0.0073 | 0.23
36 | CC(=NNS(=O)(=O)c1cc([N+](=O)[O-])ccc1N(C)CCN1CCN(S(C)(=O)=O)CC1)c1cnn2ccc(C#N)cc12 | 0.022 | 0.22
37 | CC(=NNS(=O)(=O)c1cc([N+](=O)[O-])ccc1N(C)CCCN(C)C)c1cnn2ccc(C#N)cc12 | 0.1 | 
